Test results reported in the NIST ThermoML archive (doi:10.1016/j.jct.2007.04.006).

Assays:
[1] = mn = molality of the nth substance listed, in mol/kg; settings: 298.15 K, 101 kPa, Liquid; for speed of sound: Sing-around technique in a fixed-path interferometer
[2] = 298.15 K, 101.33 kPa, Liquid; for speed of sound: Sing-around technique in a fixed-path interferometer

[Br-].[Li+] [lithium bromide] + CC(C)O
[1]
Settings	mass density [kg/m3]	speed of sound [m/s]
m1 = 0.0787	786.228	1142.6
m1 = 0.0957	787.379	1143.1
m1 = 0.1024	787.748	1143.3
m1 = 0.1387	790.137	1144.5
m1 = 0.1915	793.601	1146.2
m1 = 0.2503	797.348	1148.1
m1 = 0.3451	803.296	1150.9
m1 = 0.3951	806.427	1152.3
m1 = 0.4768	811.456	1154.5
m1 = 0.594	818.719	1157.7
m1 = 0.697	824.988	1160.3
m1 = 0.7757	829.74	1162.3
m1 = 0.9066	837.46	1165.4
m1 = 1.003	843.093	1167.7
m1 = 1.158	851.831	1170.5
m1 = 1.272	858.084	1173.5

[Br-].[Li+] [lithium bromide] + CCO
[1]
Settings	mass density [kg/m3]	speed of sound [m/s]
m1 = 0.0789	790.432	1147
m1 = 0.0913	791.251	1147.4
m1 = 0.0985	791.782	1147.8
m1 = 0.1384	794.334	1149.2
m1 = 0.1556	795.465	1150.1
m1 = 0.2019	798.467	1151.6
m1 = 0.2348	800.584	1152.6
m1 = 0.2495	801.494	1153.2
m1 = 0.301	804.725	1154.7
m1 = 0.4002	810.966	1157.8
m1 = 0.4903	816.539	1160.5
m1 = 0.6076	823.796	1163.8
m1 = 0.7038	829.747	1166.5
m1 = 0.8013	835.512	1168.9
m1 = 0.8975	841.268	1171.5
m1 = 1.013	848.08	1174.4
m1 = 1.093	852.846	1176.6
m1 = 1.215	860.012	1179.5

[Br-].[Li+] [lithium bromide] + CO
[1]
Settings	mass density [kg/m3]	speed of sound [m/s]
m1 = 0.0425	789.48	1110.7
m1 = 0.0588	790.553	1111.3
m1 = 0.0714	791.384	1112
m1 = 0.0903	792.602	1112.8
m1 = 0.1168	794.333	1113.9
m1 = 0.1473	796.328	1115.1
m1 = 0.2089	800.289	1117.7
m1 = 0.2993	806.041	1121.1
m1 = 0.5035	818.761	1128.8
m1 = 0.7097	831.385	1136.2
m1 = 0.9875	848.253	1146.1
m1 = 1.163	858.424	1152
m1 = 1.464	876.582	1162.5
m1 = 1.97	905.481	1179.6
m1 = 2.45	933.222	1195.9
m1 = 3.489	989.847	1231.2

CO [methanol]
[2]
Settings	mass density [kg/m3]	speed of sound [m/s]
–	786.71	1108.5

CC(C)O [propan-2-ol]
[2]
Settings	mass density [kg/m3]	speed of sound [m/s]
–	780.804	1139.1
